{
  "source": "patent US11655459B2",
  "about": "“Methods for reprogramming somatic cells” (Whitehead Institute for Biomedical Research, priority 2003, dated 2023)",
  "system": "fibroblasts derived from tail biopsies of mice that carry the inducible Oct4 transgene",
  "test": "Nuclear transfer experiment: in vitro development of clones derived from Oct4-induced fibroblasts",
  "type": "cell-based, mouse",
  "procedure": "Nuclear transfer was performed on fibroblasts derived from tail biopsies of mice that carry the inducible Oct4 transgene. Dox induction was for 24 hours prior to nuclear transfer. Cloned embryos were then activated and cultured to the blastocyst stage to derive ES cells as described previously (Hochedlinger and Jaenisch, 2002). […] [table]",
  "key": {"[1]": {"settings": "Dox induction 24 hours prior to nuclear transfer, fraction of eggs with pronucleus formation, single experiment, listed as Dox"}, "[2]": {"settings": "Oct4 induced, Expt. #3 and #4 together"}},
  "note": "Several values for one entry are separate records, joined by “and”; a condition that tells them apart may be missing. Identical values can stand only once.",
  "data": [
    {"molecule": "C[C@H]1c2cccc(O)c2C(=O)C2=C(O)[C@]3(O)C(=O)C(C(N)=O)=C(O)[C@@H](N(C)C)[C@@H]3[C@@H](O)[C@@H]21", "note": "[doxycycline]", "values": [
      {"measurement": "Blastocysts (% PN)", "setting": "[1]", "result": "27% and 21%"},
      {"measurement": "ES lines (% PN)", "setting": "[1]", "result": "5% and 9%"},
      {"measurement": "Blastocysts (number)", "setting": "Dox induction 24 hours prior to nuclear transfer, single experiment", "result": 10},
      {"measurement": "ES lines (number)", "setting": "Dox induction 24 hours prior to nuclear transfer, single experiment, listed as Dox", "result": "2 and 4"},
      {"measurement": "Blastocysts (% PN), average of experiments", "setting": "[2]", "result": 24, "unit": "%"},
      {"measurement": "ES lines (% PN), average of experiments", "setting": "[2]", "result": 7, "unit": "%"}
    ]}
  ]
}
